Laboratory results taken from the NIST ThermoML archive (doi:10.1021/acs.jced.8b00554).
Numbers after ± are expanded uncertainties.

Assay: xn = mol fraction of the nth substance listed
Details: 363.15 K, Liquid, Vibrating tube method

CCCCCCCCCC [decane] + CCCO
Details | mass density [kg/m3]
5010 kPa, x2 = 0.1907 | 670.1 ± 4.3
5010 kPa, x2 = 0.8711 | 711.06 ± 4.5
5020 kPa, x2 = 0.1391 | 670.64 ± 4.3
5020 kPa, x2 = 0.3001 | 671.07 ± 4.3
5020 kPa, x2 = 0.6863 | 687.44 ± 4.4
6010 kPa, x2 = 0.3001 | 672.31 ± 4.3
6010 kPa, x2 = 0.8711 | 712.33 ± 4.6
6020 kPa, x2 = 0.1391 | 671.83 ± 4.3
6020 kPa, x2 = 0.1907 | 671.28 ± 4.3
6020 kPa, x2 = 0.4326 | 673.61 ± 4.3
6020 kPa, x2 = 0.6863 | 688.73 ± 4.4
7010 kPa, x2 = 0.1907 | 672.49 ± 4.3
7010 kPa, x2 = 0.6863 | 690.06 ± 4.4
7020 kPa, x2 = 0.1391 | 673.03 ± 4.3
7020 kPa, x2 = 0.3001 | 673.57 ± 4.3
7020 kPa, x2 = 0.4326 | 674.92 ± 4.3
7020 kPa, x2 = 0.8711 | 713.62 ± 4.6
8000 kPa, x2 = 0.3001 | 674.82 ± 4.3
8000 kPa, x2 = 0.4326 | 676.22 ± 4.3
8000 kPa, x2 = 0.6863 | 691.39 ± 4.4
8010 kPa, x2 = 0.1907 | 673.78 ± 4.3
8020 kPa, x2 = 0.1391 | 674.3 ± 4.3
8020 kPa, x2 = 0.8711 | 714.86 ± 4.6
9000 kPa, x2 = 0.1391 | 675.46 ± 4.3
9000 kPa, x2 = 0.3001 | 676.11 ± 4.3
9000 kPa, x2 = 0.6863 | 692.72 ± 4.4
9010 kPa, x2 = 0.1907 | 675 ± 4.3
9010 kPa, x2 = 0.4326 | 677.52 ± 4.3
9020 kPa, x2 = 0.8711 | 716.13 ± 4.6
10000 kPa, x2 = 0.1391 | 676.67 ± 4.3
10000 kPa, x2 = 0.1907 | 676.19 ± 4.3
10010 kPa, x2 = 0.3001 | 677.41 ± 4.3
10010 kPa, x2 = 0.6863 | 694.02 ± 4.5
10010 kPa, x2 = 0.8711 | 717.4 ± 4.6
10020 kPa, x2 = 0.4326 | 678.87 ± 4.3
11000 kPa, x2 = 0.1391 | 677.93 ± 4.3
11010 kPa, x2 = 0.3001 | 678.66 ± 4.3
11010 kPa, x2 = 0.6863 | 695.33 ± 4.5
11020 kPa, x2 = 0.1907 | 677.43 ± 4.3
11020 kPa, x2 = 0.4326 | 680.14 ± 4.4
11020 kPa, x2 = 0.8711 | 718.66 ± 4.6
12000 kPa, x2 = 0.1391 | 679.09 ± 4.4
12000 kPa, x2 = 0.1907 | 678.73 ± 4.3
12000 kPa, x2 = 0.3001 | 679.92 ± 4.4
12010 kPa, x2 = 0.4326 | 681.46 ± 4.4
12010 kPa, x2 = 0.6863 | 696.59 ± 4.5
12010 kPa, x2 = 0.8711 | 719.87 ± 4.6
13010 kPa, x2 = 0.1391 | 680.3 ± 4.4
13010 kPa, x2 = 0.1907 | 679.91 ± 4.4
13010 kPa, x2 = 0.3001 | 681.16 ± 4.4
13010 kPa, x2 = 0.4326 | 682.71 ± 4.4
13010 kPa, x2 = 0.6863 | 697.91 ± 4.5
13020 kPa, x2 = 0.8711 | 721.04 ± 4.6
14000 kPa, x2 = 0.1907 | 681.11 ± 4.4
14000 kPa, x2 = 0.4326 | 683.94 ± 4.4
14010 kPa, x2 = 0.1391 | 681.47 ± 4.4
14010 kPa, x2 = 0.3001 | 682.38 ± 4.4
14020 kPa, x2 = 0.6863 | 699.14 ± 4.5
14020 kPa, x2 = 0.8711 | 722.27 ± 4.6
15000 kPa, x2 = 0.1907 | 682.24 ± 4.4
15000 kPa, x2 = 0.4326 | 685.14 ± 4.4
15000 kPa, x2 = 0.6863 | 700.32 ± 4.5
15010 kPa, x2 = 0.3001 | 683.55 ± 4.4
15010 kPa, x2 = 0.8711 | 723.44 ± 4.6
15020 kPa, x2 = 0.1391 | 682.58 ± 4.4
16000 kPa, x2 = 0.3001 | 684.7 ± 4.4
16000 kPa, x2 = 0.4326 | 686.33 ± 4.4
16010 kPa, x2 = 0.1391 | 683.66 ± 4.4
16010 kPa, x2 = 0.1907 | 683.38 ± 4.4
16010 kPa, x2 = 0.8711 | 724.56 ± 4.7
16020 kPa, x2 = 0.6863 | 701.55 ± 4.5
17000 kPa, x2 = 0.3001 | 685.86 ± 4.4
17010 kPa, x2 = 0.1391 | 684.77 ± 4.4
17010 kPa, x2 = 0.1907 | 684.57 ± 4.4
17010 kPa, x2 = 0.4326 | 687.43 ± 4.4
17020 kPa, x2 = 0.6863 | 702.7 ± 4.5
17020 kPa, x2 = 0.8711 | 725.68 ± 4.7
18000 kPa, x2 = 0.1391 | 685.82 ± 4.4
18000 kPa, x2 = 0.1907 | 685.6 ± 4.4
18000 kPa, x2 = 0.3001 | 686.93 ± 4.4
18010 kPa, x2 = 0.6863 | 703.81 ± 4.5
18010 kPa, x2 = 0.8711 | 726.78 ± 4.7
18020 kPa, x2 = 0.4326 | 688.58 ± 4.4
19000 kPa, x2 = 0.1391 | 686.79 ± 4.4
19000 kPa, x2 = 0.4326 | 689.63 ± 4.4
19000 kPa, x2 = 0.8711 | 727.82 ± 4.7
19010 kPa, x2 = 0.1907 | 686.57 ± 4.4
19010 kPa, x2 = 0.3001 | 687.98 ± 4.4
19020 kPa, x2 = 0.6863 | 704.89 ± 4.5
20000 kPa, x2 = 0.3001 | 688.93 ± 4.4
20000 kPa, x2 = 0.8711 | 728.82 ± 4.7
20010 kPa, x2 = 0.1391 | 687.72 ± 4.4
20010 kPa, x2 = 0.1907 | 687.53 ± 4.4
20010 kPa, x2 = 0.4326 | 690.72 ± 4.4
20010 kPa, x2 = 0.6863 | 706 ± 4.5
